Literature values in patent US20250049818A1, “PRENATAL SUPPLEMENT COMPOSITIONS FOR INCREASING BREASTMILK MICRONUTRIENT LEVELS” (SOCIÉTÉ DES PRODUITS NESTLÉ S.A., priority 2021, published 2025).
Like-named read-outs stand apart in the source and are kept apart here.

Assays:
[1] = children of developing world, meta-analysis
[2] = daily supplementation during pregnancy only, zinc 30 mg
[3] = 10 mg/day for 120 days, Indian infants aged 6-35 months
[4] = 5 mg/day, Indian infants small for gestational age

Compound | mean vitamin D activity (VDA) of human milk (two months post-partum, 1,000 IU group) [IU/L] | mean vitamin D activity (VDA) of human milk (two months post-partum, 2,000 IU group) [IU/L] | mean vitamin D activity (VDA) of human milk (two weeks post-partum, 1,000 IU daily oral, 27-36 weeks of gestation) [IU/L] | mean vitamin D activity (VDA) of human milk (two weeks post-partum, 2,000 IU daily oral, 27-36 weeks of gestation) [IU/L] | reduced diarrhoea [1] [%] | human milk zinc concentration ([2]; 1 month postpartum) | human milk zinc concentration ([2]; 6 months postpartum) | reduction in incidence of acute lower respiratory infections [3] [%] | reduction in mortality [4] [%]
C=C1CC[C@H](O)C/C1=C/C=C1\CCC[C@]2(C)[C@@H]([C@H](C)CCCC(C)C)CC[C@@H]12 [vitamin D3, cholecalciferol] | 43 | 58 | 51 | 74 | – | – | – | – | –
[Zn] [zinc] | – | – | – | – | 18 | 49.3 (31.3-62.1) μmol/L | 15.3 (11.8-27.2) μmol/L | 45 | 68
